Results published in US20100003228A1, “T-CELL VACCINE” (priority 2006, published 2010).

Legend:
Assay type in all cases: cell-based, human
[1] = system: myelin reactive T cells in PBMCs; experiment: Epitope Analysis Assay (EAA): PBMC stimulation with myelin peptide mixes, tritiated thymidine incorporation, SI of at least 3 positive; settings: all 54 subjects tested
Protocol: The SI may be calculated by comparing [^3H] thymidine incorporation of the sample in the presence of a peptide comprising a portion of an MRTC polypeptide target to that in the presence of a media only control. Briefly, separate aliquots of the sample are plated and incubated in the presence of either a peptide comprising a portion of the polypeptide or a media only control in order to stimulate reactive T cells. The cultures are pulsed with [^3H] thymidine during the last 6-18 hours of incubation. The SI is calculated as the quotient of the mean counts per minute (cpm) of the antigen aliquots/mean cpm of the control aliquots. The SI of autoreactive T cells may be increased by at least a factor of 1.3, 1.4, 1.5, 1.6, 1.7, 1.8, 1.9, 2.0, 2.1, 2.2, 2.3, 2.4, 2.5, 2.6, 2.7. 2.8, 2.9, 3.0, 3.1, 3.2, 3.3, 3.4, 3.5, 3.6, 3.7, 3.8, 3.9, or 4.0 compared to a control.
The peptides in Example 2 were tested in an in vitro PBMC stimulation assay to identify myelin reactive T cells in a patient's blood. Peripheral blood mononuclear cells (PBMCs) were separated from whole blood, washed, counted and plated at 250,000 cells per well in a total of four 96-well plates. Myelin peptide mixes of two overlapping 16-mer peptides were added to triplicate wells of PBMCs with triplicate media only control wells included on each plate and then incubated. After two days of incubation, 20 U/ml of interleukin-2 (IL-2) was added. On the fifth day, the plates were labeled with a radioisotope (tritiated thymidine) and harvested 6 hours later. In this assay, the cells that incorporate tritiated thymidine are representative of T cells being activated and induced to proliferate by the T cell receptor-peptide-MHC complexes. T cells incorporating comparatively more tritiated thymidine than control and experimental cells are more highly activated T cells and are proliferating more rapidly.
Stimulation Indices (SI) were determined for each peptide mix by dividing the mean radiolabel counts per minute (CPM) of the peptide stimulated wells by the mean CPM of the media only control wells averaged across all four plates. An SI of at least 3 was considered positive. FIG. 1 is an example of EAA from one MS patient. Seven of the peptide mixtures were slightly reactive, with the MOGm15 stimulated wells being very reactive. FIGS. 2-4 show the frequency of reactivity to the peptide mixes in 48 patients.

[2] = system: myelin reactive T cells in PBMCs; experiment: EAA with positivity by Variance Evaluation Method or CPM Variance Method (clinical trials); settings: clinical trial population, RR-MS or CIS subjects
Text: The predetermined value may also be calculated using a Variance Evaluation Method as follows: • 1. EAAs may be run on a given patient population (minimum of 120 assays from 120 unique subjects) • 2. A “negative population” may be created by averaging all SI values<2.5 • 3. The Standard Deviation (SD) may be calculated for each peptide • 4. The following for each peptide may be then be calculated: • a. Average+1SD • b. Average+2SD • c. Average+3SD • 5. The following SIs may be considered above the predetermined value: • a. SI greater than or equal to the average+3SD • b. Any SI greater than or equal to 2.5
The predetermined value may also be evaluated using a Counts per Minute (CPM) Variance Method. This algorithm may set a comprehensive cutoff for all peptides within a given assay. It may be calculated as follows: • 1. EAAs may be run and the CPM for all control (media only, no antigen) wells averaged. • 2. The SD for CPM of the control wells may then be calculated. • 3. The following may then be calculated for the control wells: • a. Average+1SD • b. Average+2SD • c. Average+3SD • 4. Any peptide with an average CPM greater than or equal to the average+3SD of the control wells may be considered above the predetermined value.
Any peptide, either analyzed in an individual well or as averaged over wells run in triplicate, with an SI≧2.5, an SI≧average+3SD by the Variance Evaluation Method, or an SI≧average+3SD by the CPM variance method may be considered above the predetermined value, which may indicate a T cell(s) positive for reactivity to a peptide.
The peptides of Example 3 have been tested in 429 EAAs in clinical trials as follows. […] Pre-Vaccine EAAs have 158 positive out of 387 assays (40.8%), with Relapse Remitting MS patients (RRMS) showing 150 positive of 368 assays (40.8%), and Clinically Isolated Syndrome (CIS) patients showing 8 positive of 19 assays (42.1%).
Over the course of 6 months a study was conducted with 120 subjects meeting the criteria for the clinical trial.
The above mentioned population of subjects was evaluated by EAA using the Variance Evaluation Method and CPM Variance Method as described above, and deemed eligible for vaccine production. Of the 120 attempts to manufacture vaccine, there were 2 shipping failures (blood was not received within our stated criteria), 1 culture was lost to contamination and 5 samples arrived with low cell volume/yield. Of the remaining 112 subjects, vaccine was successfully generated in 89 subjects, with 22 still in production (98.9% of eligible samples, 92.5% of all samples completed). From this, a positive EAA was deemed predictive of the ability to manufacture a vaccine to therapeutic dose by methods disclosed herein.

myelin-reactive T cells = experiment: Growth of myelin reactive T cell lines with low stimulation indices
Text: Using the algorithms described above, statistically significant SIs as low as 1.3 have been observed and therefore should be able grow in response to antigen. To verify this ability, 5 cell lines across two patients are shown with an SI<2.0. The results are shown in Table 12 and FIG. 24, which indicate growth of these cell lines with only peptide antigen stimulation and common T cell growth factors.
PBMC for subject 1042 were run in the EAA, and […] were positive, including PLPm18 with an SI of 1.8, PLPm26 with an SI of 2.5 and PLPm28 with an SI of 2.5. […] PBMC for subject 1014 were run in the EAA, and 4 mixes were positive, including MBPm14 with an SI of 1.7, PLPm17 with an SI of 1.7, PLPm28 with an SI of 2.2 and MOGm6 with an SI of 1.9. […]
PBMCs were isolated via density gradient centrifugation from peripheral blood obtained through venipuncture into ACD-1 anticoagulant. PBMCs were plated at 2.5E+06 cells/well in 24 well plates. Antigen in the form of 16mer peptides identified in the EAA were added at a final concentration of 20 ug/ml. Interluekin-2 (IL-2) was added at a final concentration of 100 U/ml starting at 48 hours and IL-2 was added at the same concentration with each feeding or splitting of wells. Peptide restimulation in the presence of antigen presenting cells (APCs-autologous PBMCs irradiated at 3500 rad) was done at days 7, 14 and 21. Interleukin-15 (IL-15) was added at a final concentration of 5 ng/ml-20 ng/ml (lot specific) starting at day 14 and continued through the remainder of the culture period. Cells lines were all harvested by day 35 and had achieved expansions of 3.0-8.2 fold.

Substance	subjects tested that were reactive [1]	# of Subjects (frequency of identification) [2]	% of Subjects (frequency of identification) [2] [%]	Fold Expansion (myelin-reactive T cells; subject 1042, Day 0)	Viable Cell Count, Count/well (myelin-reactive T cells; subject 1042, Day 0)	Viable Cell Count, Total Cells (myelin-reactive T cells; subject 1042, Day 0)	Fold Expansion (myelin-reactive T cells; subject 1042, Day 14)	Viable Cell Count, Count/well (myelin-reactive T cells; subject 1042, Day 14)	Viable Cell Count, Total Cells (myelin-reactive T cells; subject 1042, Day 14)	Fold Expansion (myelin-reactive T cells; subject 1042, Day 19)	Viable Cell Count, Count/well (myelin-reactive T cells; subject 1042, Day 19)	Viable Cell Count, Total Cells (myelin-reactive T cells; subject 1042, Day 19)	Fold Expansion (myelin-reactive T cells; subject 1042, Day 26)	Viable Cell Count, Count/well (myelin-reactive T cells; subject 1042, Day 26)	Viable Cell Count, Total Cells (myelin-reactive T cells; subject 1042, Day 26)	Fold Expansion (myelin-reactive T cells; subject 1042, Day 33)	Viable Cell Count, Count/well (myelin-reactive T cells; subject 1042, Day 33)	Viable Cell Count, Total Cells (myelin-reactive T cells; subject 1042, Day 33)	Fold Expansion (myelin-reactive T cells; subject 1042, Day 35)	Viable Cell Count, Count/well (myelin-reactive T cells; subject 1042, Day 35)	other results
MBP 151-170: immunodominant peptide of MBP used to prepare vaccines in Example 1 (TASTMDHARHGFLPRHRDTG; UniProt P02686 151-170, looked up, fragment)	Forty-one percent	–	–	–	–	–	–	–	–	–	–	–	–	–	–	–	–	–	–	–	–
PLP 30-49: PLP immunodominant peptide used to prepare vaccines in Example 1 (ALFCGCGHEALTGTEKLIET; UniProt P60201 30-49, looked up, fragment)	31%	–	–	–	–	–	–	–	–	–	–	–	–	–	–	–	–	–	–	–	–
PLP 180-199: PLP immunodominant peptide used to prepare vaccines in Example 1 (TWTTCQSIAFPSKTSASIGS; UniProt P60201 180-199, looked up, fragment)	31%	–	–	–	–	–	–	–	–	–	–	–	–	–	–	–	–	–	–	–	–
PLPm18: mix of PLP 35 and PLP 36 (chain 1 RVCHCLGKWLGHPDKF; chain 2 CLGKWLGHPDKFVGIT)	–	10	8.4	1.0	2.50E+06	3.00E+07	0.4	9.60E+05	1.15E+07	0.8	1.97E+06	2.36E+07	1.2	1.50E+06	3.60E+07	3.0	3.76E+06	9.02E+07	3.0	3.74E+06	Viable Cell Count, Total Cells (myelin-reactive T cells; subject 1042, Day 35): 8.98E+07
PLPm26: mix of PLP 51 and PLP 52 (chain 1 CADARMYGVLPWNAFP; chain 2 RMYGVLPWNAFPGKVC)	–	28	23.5	1.0	2.50E+06	3.00E+07	0.6	1.50E+06	1.80E+07	1.0	2.40E+06	2.88E+07	3.0	3.73E+06	8.95E+07	4.2	2.61E+06	1.25E+08	5.7	3.54E+06	Viable Cell Count, Total Cells (myelin-reactive T cells; subject 1042, Day 35): 1.70E+08
PLPm28: mix of PLP 55 and PLP 56 (chain 1 GKVCGSNLLSICKTAE; chain 2 GSNLLSICKTAEFQMT)	–	6	5.0	1.0	2.50E+06	3.00E+07	0.6	1.56E+06	1.87E+07	1.5	3.82E+06	4.58E+07	3.5	4.34E+06	1.04E+08	7.4	4.61E+06	2.21E+08	8.2	5.15E+06	Fold Expansion (myelin-reactive T cells; subject 1014, Day 0): 1.0; Viable Cell Count, Count/well (myelin-reactive T cells; subject 1014, Day 0): 2.50E+06; Viable Cell Count, Total Cells (myelin-reactive T cells; subject 1014, Day 0): 2.25E+07; Fold Expansion (myelin-reactive T cells; subject 1014, Day 17): 0.9; Viable Cell Count, Count/well (myelin-reactive T cells; subject 1014, Day 17): 3.09E+06; Viable Cell Count, Total Cells (myelin-reactive T cells; subject 1014, Day 17): 2.78E+07; Fold Expansion (myelin-reactive T cells; subject 1014, Day 19): 1.4; Viable Cell Count, Count/well (myelin-reactive T cells; subject 1014, Day 19): 2.41E+06; Viable Cell Count, Total Cells (myelin-reactive T cells; subject 1014, Day 19): 4.34E+07; Fold Expansion (myelin-reactive T cells; subject 1014, Day 28): 2.8; Viable Cell Count, Count/well (myelin-reactive T cells; subject 1014, Day 28): 2.81E+06; Viable Cell Count, Total Cells (myelin-reactive T cells; subject 1014, Day 28): 8.43E+07; Fold Expansion (myelin-reactive T cells; subject 1014, Day 33): 5.2; Viable Cell Count, Count/well (myelin-reactive T cells; subject 1014, Day 33): 5.17E+06; Viable Cell Count, Total Cells (myelin-reactive T cells; subject 1014, Day 33): 1.55E+08; Fold Expansion (myelin-reactive T cells; subject 1014, Day 35): 5.3; Viable Cell Count, Count/well (myelin-reactive T cells; subject 1014, Day 35): 5.33E+06; Viable Cell Count, Total Cells (myelin-reactive T cells; subject 1014, Day 35): 1.60E+08; Viable Cell Count, Total Cells (myelin-reactive T cells; subject 1042, Day 35): 2.47E+08
